Data reported in US20070065471A1, “Cosmetic/dermatological applications of PPAR receptor activators” (GALDERMA RESEARCH & DEVELOPMENT S.N.C., priority 2003, published 2007).

Assays:
sebaceous glands = assay: Activity of PPAR activators on the size of sebaceous glands, daily topical application to rat back skin; type: in vivo, female Fuzzy or OFA rats; conditions: once daily 4 weeks, control (acetone) = 1.00
Protocol: The evaluation of the activity of the compounds according to the invention is performed by daily topical application (once a day, weekends included) to the skin of the back of female Fuzzy or OFA rats, for 4 weeks. 30 animals of 9/10 weeks old were divided into groups of 6 animals.
The evaluation method entails weighing the animals at the start and end of the test and in evaluating the size of the sebaceous glands on epidermal leaflets.
The animals are euthanized and the treated area (back) is then shaved and defatted. The 8 mm biopsy samples are then incubated in 1 M NaBr. After separating out the epidermis, photographs are taken of the sebaceous glands and the images obtained are then analyzed using the Tina software (quantification of the area of the sebaceous glands, arbitrary area unit [mm^2]), version 2.09 g sold by Raytest GmbH.
The statistical analysis is performed according to Student's t test (XL software sold by Microsoft)
The results are expressed as the mean of the inductions (“Mean RI”) with the value of the standard error of the mean (“SEM”).
Student's t test (“stat”): NS not significant • *p<0.05 • **p<0.01 • ***p<0.001

PPAR gamma = target: T1, PPAR gamma (Homo sapiens, UniProt P37231); assay: PPAR transactivation test, PPAR gamma (HeLN reporter cells); type: cell-based; conditions: luciferase reporter, Gal-hPPAR gamma, n.a. means not active, read-out: PPAR gamma Kd app
T1 sequence (P37231 238-505 limits assumed): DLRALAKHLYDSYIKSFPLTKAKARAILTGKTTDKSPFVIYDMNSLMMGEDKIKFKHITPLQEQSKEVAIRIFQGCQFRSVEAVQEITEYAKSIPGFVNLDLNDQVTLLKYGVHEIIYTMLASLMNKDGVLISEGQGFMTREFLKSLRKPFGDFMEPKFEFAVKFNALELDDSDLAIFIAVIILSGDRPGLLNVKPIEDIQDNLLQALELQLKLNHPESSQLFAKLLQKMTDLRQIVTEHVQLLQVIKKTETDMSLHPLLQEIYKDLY
Protocol: (§1) Activation of the PPAR receptors with an agonist (activator) in HeLN cells leads to the expression of a reporter gene, luciferase, which, in the presence of a substrate, generates light. The modulation of the PPAR receptors is measured by quantifying the luminescence produced after incubating the cells in the presence of a reference agonist. The ligands displace the agonist from its site. The measurement of the activity is performed by quantifying the light produced. This measurement makes it possible to determine the modulatory activity of the compounds according to the invention by determining the constant that represents the affinity of the molecule for the PPAR receptor. This value can fluctuate according to the basal activity and the expression of the receptor: it is referred to as Kd apparent (KdApp in nM).
(§2) Measurements are also taken for the total agonist controls with the same products.
(§3) The HeLN cell lines used are stable transfectants comprising the plasmids ERE-βGlob-Luc-SV-Neo (reporter gene) and PPAR (α, δ, γ) Gal-hPPAR. These cells are inoculated in 96-well plates at a rate of 10,000 cells per well in 100 µl of DMEN medium without phenol red and supplemented with 10% defatted calf serum. The plates are then incubated at 37° C. and 7% CO2 for 16 hours.
(§4) The various dilutions of the test products and of the reference ligand are added in a proportion of 5 µl per well. The plates are then incubated for 18 hours at 37° C., 7% CO2. The culture medium is removed by upturning and 100 μl of a 1:1 PBS/luciferin mixture are added to each well. After 5 minutes, the plates are read using a luminescence reader.

PPARs delta = target: T2, PPARs delta (Homo sapiens, UniProt Q03181); assay: PPAR transactivation test, PPAR delta (HeLN reporter cells); type: cell-based; conditions: luciferase reporter, Gal-hPPAR delta, n.a. means not active, read-out: PPARs delta Kd app
T2 sequence (Q03181 171-441 limits assumed): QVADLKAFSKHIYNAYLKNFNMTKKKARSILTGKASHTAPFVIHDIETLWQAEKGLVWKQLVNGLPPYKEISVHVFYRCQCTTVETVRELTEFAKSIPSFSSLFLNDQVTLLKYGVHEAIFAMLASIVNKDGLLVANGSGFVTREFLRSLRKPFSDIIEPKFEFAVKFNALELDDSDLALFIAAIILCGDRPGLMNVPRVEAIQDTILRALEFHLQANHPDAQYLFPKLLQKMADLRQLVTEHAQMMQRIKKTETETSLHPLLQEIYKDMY
Protocol: as §1, §2, §3, §4

PPAR alpha = target: T3, PPAR alpha (Homo sapiens, UniProt Q07869); assay: PPAR transactivation test, PPAR alpha (HeLN reporter cells); type: cell-based; conditions: luciferase reporter, Gal-hPPAR alpha, n.a. means not active, read-out: PPAR alpha Kd app
T3 sequence (Q07869 200-468 limits assumed): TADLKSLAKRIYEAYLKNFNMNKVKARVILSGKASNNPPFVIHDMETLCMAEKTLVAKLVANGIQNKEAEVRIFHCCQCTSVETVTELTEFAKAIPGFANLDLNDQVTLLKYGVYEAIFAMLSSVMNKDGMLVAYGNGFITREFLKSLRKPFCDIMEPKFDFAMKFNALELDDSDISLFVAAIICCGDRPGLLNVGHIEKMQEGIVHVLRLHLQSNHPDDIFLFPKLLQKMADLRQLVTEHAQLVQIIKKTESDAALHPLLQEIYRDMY
Protocol: as §1, §2
as §3, with “The plates are then incubated at 37° C. and 7% CO2 for 16 hours.” left out
The various dilutions of the test products and of the reference ligand are added in a proportion of 5 µl per well. […] After 5 minutes, the plates are read using a luminescence reader.

CCCc1nnc([C@H](Cc2ccc(OCCc3nc(-c4ccccc4)oc3C)cc2)Nc2ccccc2C(=O)c2ccccc2)o1 [Negative Control, 1-{2-[(S)-2-{4-[2-(5-methyl-2-phenyloxazol-4-yl)ethoxy]phenyl}-1-(5-propyl[1,3,4]oxadiazol-2-yl)ethylamino]phenyl}-1-phenylmethanone, reference compound]
Mean RI (sebaceous gland size) (sebaceous glands; Study 4, 0.01% topical): 1.12 | Mean RI (sebaceous gland size) (sebaceous glands; Study 4, 0.1% topical): 1.08 | Mean RI (sebaceous gland size) (sebaceous glands; Study 4, 1% topical): 1.08

COCCOCOc1ccc2cc(C(=O)N(C)Cc3cccc(-c4ccc(Nc5ccccc5C(=O)O)cc4)c3)ccc2c1 [Example 6, 2-{3′-[({1-[6-(2-methoxyethoxymethoxy)-naphthalen-2-yl]methanoyl}methylamino)methyl]biphenyl-4-ylamino}benzoic acid]
Kd (PPAR gamma): 30 nM

CN(CCOc1ccc(CC2SC(=O)NC2=O)cc1)c1ccccn1 (centres unmarked) [Example 1, 5-{4-[2-(methylpyrid-2-ylamino)ethoxy]-benzyl}thiazolidine-2,4-dione]
Mean RI (sebaceous gland size) (sebaceous glands; Study 1, 0.1% topical): 0.73 | Mean RI (sebaceous gland size) (sebaceous glands; Study 1, 0.3% topical): 0.55 | Mean RI (sebaceous gland size) (sebaceous glands; Study 1, 1% topical): 0.51 | Mean RI (sebaceous gland size) (sebaceous glands; Study 2, 0.1% topical): 0.83

CCCCCCCNC(=O)N(C)c1cccc(-c2ccc(C[C@H](Nc3ccccc3C(=O)c3ccccc3)C(=O)O)cc2)c1 [Example 3, (S)-3-[3′-(3-heptyl-1-methylureido)biphenyl4-yl]-2-[2-(1-phenylmethanoyl)phenylamino]-propionic acid]
Mean RI (sebaceous gland size) (sebaceous glands; Study 3, 0.01% topical): 1.02 | Mean RI (sebaceous gland size) (sebaceous glands; Study 3, 0.1% topical): 0.84 | Mean RI (sebaceous gland size) (sebaceous glands; Study 3, 1% topical): 0.74 | Kd (PPARs delta): 250 nM | Kd (PPAR gamma): 15 nM

CCCOc1ccc2cc(C(=O)N(C)Cc3cccc(-c4ccc(CC5SC(=O)NC5=O)cc4)c3)ccc2c1 (centres unmarked) [Example 4, N-methyl-N-[4′-(2,4-dioxothiazolidin-5-yl-methyl)biphenyl-3-ylmethyl)-6-propoxynaphthalene-2-carboxamide]
Kd (PPAR gamma): 1 nM

C[C@]12CCC(=O)CC1CCC1C2CC[C@@]2(C)C1CC[C@@H]2O (stereo partly drawn) [Positive Control, 5a-androstan-17β-ol-3-one, reference compound]
Mean RI (sebaceous gland size) (sebaceous glands; Study 1, 0.3% topical): 1.73

COCCOCOc1ccc2cc(C(=O)N(C)Cc3cccc(-c4ccc(CC5SC(=O)NC5=O)cc4)c3)ccc2c1 (centres unmarked) [Example 2, N-methyl-N-[4′-(2,4-dioxothiazolidin-5-yl-methyl)biphenyl-3-ylmethyl]-6-(2-methoxyethoxymethoxy)-naphthalene-2-carboxamide]
Mean RI (sebaceous gland size) (sebaceous glands; Study 2, 0.003% topical): 0.82 | Mean RI (sebaceous gland size) (sebaceous glands; Study 2, 0.03% topical): 0.75 | Mean RI (sebaceous gland size) (sebaceous glands; Study 2, 0.3% topical): 0.65 | Mean RI (sebaceous gland size) (sebaceous glands; Study 3, 0.3% topical): 0.66 | Mean RI (sebaceous gland size) (sebaceous glands; Study 4, 0.3% topical): 0.67 | Kd (PPAR gamma): 0.5 nM

CN(C)c1ccc(NC(=O)N(C)c2cccc(-c3ccc(C[C@H](Nc4ccccc4C(=O)c4ccccc4)C(=O)O)cc3)c2)cc1 [Example 7, (S)-3-{3′-[3(4-dimethylaminophenyl)-1-methylureido]biphenyl-4-yl}-2-[2-(1-phenylmethanoyl)-phenylamino]propionic acid]
Kd (PPARs delta): 4000 nM | Kd (PPAR gamma): 8 nM

CCCCCCCC(=O)N(C)Cc1cccc(-c2ccc(C[C@H](OCC)C(=O)O)cc2)c1 [Example 5, (S)-2-ethoxy-3-{3′-[(methyloctanoylamino)methyl]biphenyl-4-yl}propionic acid]
Kd (PPAR alpha): 500 nM | Kd (PPARs delta): 4000 nM | Kd (PPAR gamma): 2 nM
